What is called IC50 is the point on the concentration scale where inhibition reaches its midpoint.

The target of one assay is T1, ENL YEATS domain (association with H3K27cr) (Homo sapiens, UniProt Q03111).
T1 sequence (Q03111 1-148): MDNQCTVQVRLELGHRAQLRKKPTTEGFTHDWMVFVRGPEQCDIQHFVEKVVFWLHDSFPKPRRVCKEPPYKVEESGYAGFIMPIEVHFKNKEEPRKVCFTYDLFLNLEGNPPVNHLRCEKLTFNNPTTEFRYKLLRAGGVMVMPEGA
The assay can be described thus: biochemical. Conditions: ENL (YEATS)-H3K27cr HTRF (IC50, μM), Table 1. As to the method: (§1) Protein Production. Double stranded DNA fragments encoding the protein sequence of ENL YEATS(1-148) were synthesized (IDT DNA) for assembly-based cloning into a modified expression vector backbone derived from pET21a (Novagen). The protein was fused to a StrepII-SUMO and 6×His tag on the amino and carboxy terminus, respectively. Transformed BL21(DE3) cells (New England Biolabs) were grown at 37° C. in 2×YT growth medium to an OD600 of 0.6. Protein expression was induced at 25° C. with the addition of isopropyl-β-D-thiogalactopyranoside (IPTG) to a final concentration of 0.4 mM. The culture was harvested by centrifugation following a 20-hour incubation and subsequently purified by immobilized metal affinity chromatography. Cells were resuspended 50 mM Tris-HCl pH 8.0, 300 mM NaCl, 10% glycerol, 10 mM imidazole, 1 mM DTT containing Complete EDTA-free protease inhibitor (Roche) and lysed by two passes through a MicroFluidizer at 10,000 psi. The lysate was clarified by centrifugation at 16,000 rpm for 30 minutes at 4° C. The supernatant was passed over NiNTA agarose (QIAGEN) and the protein was eluted in 50 mM Tris-HCl pH 8.0, 300 mM NaCl, 10% glycerol, 250 mM imidazole, 1 mM DTT. Fractions containing the ENL YEATS(1-148) fusion protein were buffer exchanged into 100 mM Tris-HCl pH 8.0, 150 mM NaCl, 1 mM EDTA, 1 mM DTT using PD10 desalting columns (GE Life Sciences). Ulp1 protease was added to cleave the StrepII-SUMO fusion and the reaction mixture was incubated overnight at 4° C. The cleavage reaction mixture was loaded onto a StrepTrap column (GE Life Sciences) and ENL YEATS(1-148) was recovered in the flow through. BRD4 BD1 was purchased from Cayman (Cat. No. 11720).
(§2) Homogenous time-resolved FRET (HTRF) histone-binding assays. Both HTRF assays were performed by combining recombinant protein and synthetic histone peptide in assay buffer (25 mM HEPES pH 7, 20 mM NaCl, 0.2% Pluronic F-127, and 0.05% BSA) with 1 nM LanthaScreen Eu-anti-His Tag antibody (ThermoFisher, Cat. No, PV5597) and 8.9 nM SureLight allophycocyanin-streptavidin (Perkin Elmer, APC-SA, Cat. No. CR130-100). ENL YEATS was used at 5 nM and BRD4 BD1 was used at 10 nM. ENL assays were performed with H3(13-32)K27cr (13.3 and 100 nM, respectively), custom synthesized at ABclonal (N-terminal biotin, C-terminal amide); BRD4 BD1 assay was performed with 13.3 nM tetra-acetylated H4 (BioVision, Cat. No. 7144-01). Once all reagents were combined (with or without peptide), 10 μL was dispensed per well into black 384-well low-volume plates (Corning, Cat. No. 3821) and drug was added by pin tool transfer (Biomek FX). Assays were incubated for 2 or more hours before measurement of HTRF signal on a PHERAstar plate reader (BMG Labtech; simultaneous dual emission; excitation=337 nm, emission 1=665 nm, emission 2=620 nm). HTRF signal (ratio of emission 1 to emission 2) from vehicle-treated wells (maximum signal) and no-peptide-control wells (minimum signal) were used to calculate percent inhibition for drug-treated wells.
(Time-resolved FRET reads energy transfer from a long-lived donor to a nearby acceptor.)
In the case of `CC(C)NC(=O)c1ccc2nc(-c3cccc(NS(=O)(=O)NCc4ccc(O)cc4)c3)cn2c1` [Compound 47], the IC50 turned out to be 0.37 µM.

On to `CC(C)NC(=O)c1ccc2nc(-c3cccc(NS(=O)(=O)NCCc4ccc(S(N)(=O)=O)cc4)c3)cn2c1` [Compound 48], for which the IC50 came out at 0.51 µM.

Regarding `CC(C)NC(=O)c1ccc2nc(-c3cccc(NS(=O)(=O)NCCc4cccs4)c3)cn2c1` [Compound 49], the IC50 worked out at 1.36 µM.

With `COc1ccc(CNS(=O)(=O)Nc2cccc(-c3cn4cc(C(=O)NC(C)C)ccc4n3)c2)c(OC)c1` [Compound 50], the IC50 was determined as 0.52 µM.

`CC(C)NC(=O)c1ccc2nc(-c3cccc(NS(=O)(=O)NCc4ccc(F)cc4)c3)cn2c1` [Compound 51] displayed an IC50 of 1.02 µM.

Compound `CNS(=O)(=O)Nc1cccc(-c2cn3cc(C(=O)NC(C)C)ccc3n2)c1` [Compound 52] gave a 50% inhibitory concentration (IC50) of 0.39 µM.

For `CC(C)NC(=O)c1ccc2nc(-c3cccc(NS(=O)(=O)NCCCN4CCCC4=O)c3)cn2c1` [Compound 53], the half-inhibitory concentration (IC50) is 0.88 µM.

The compound `COC(=O)[C@@H](Cc1c[nH]c2ccccc12)NS(=O)(=O)Nc1cccc(-c2cn3cc(C(=O)NC(C)C)ccc3n2)c1` [Compound 54] displayed an IC50 of 0.87 µM.

`COC(=O)[C@H]1CCCN1S(=O)(F)=Nc1cccc(-c2cn3cc(C(=O)NC(C)C)ccc3n2)c1` (some centres unmarked) [Compound 55] had an IC50 of 0.95 µM.

Compound `Cc1cc(-c2cn3cc(C(=O)NC(C)C)ccc3n2)ccn1` [Compound 88] gave a half-maximal inhibitory concentration (IC50) of 7.05 µM.

`CC(C)NC(=O)c1ccc2nc(-c3ccccc3C#N)cn2c1` [Compound 89] had a half-inhibitory concentration (IC50) of 16.7 µM.

In turn, `CC(C)NC(=O)c1ccc2nc(Cn3ccnc3)cn2c1` [Compound 90] gave a half-maximal inhibitory concentration (IC50) of 26.6 µM.

Regarding `CC(C)NC(=O)c1ccc2nc(-c3ccccn3)cn2c1` [Compound 91], the IC50 amounted to 14.8 µM.

In the case of `CC(C)NC(=O)c1ccc2nc(-c3ccc(CN)cc3)cn2c1` [Compound 92], it took 3.72 µM to reach half-maximal inhibition (IC50).

The assay is the same for the next values; noted with them: ENL (YEATS)-H3K27cr HTRF (IC50, μM), Table 2.
Regarding `CC(C)NC(=O)c1ccc2nc(-c3cccc(NS(=O)(=O)NCc4ccc(O)cc4)c3)cn2c1` [Compound 47], 0.37 µM corresponded to half-maximal inhibition (IC50).

Consider `CC(C)NC(=O)c1ccc2nc(-c3cccc(NS(=O)(=O)NCCc4ccc(S(N)(=O)=O)cc4)c3)cn2c1` [Compound 48], for which the midpoint of inhibition, the IC50, lay at 0.51 µM.

As to `CC(C)NC(=O)c1ccc2nc(-c3cccc(NS(=O)(=O)NCCc4cccs4)c3)cn2c1` [Compound 49], the 50% inhibitory concentration (IC50) is 1.36 µM.

Turning to `COc1ccc(CNS(=O)(=O)Nc2cccc(-c3cn4cc(C(=O)NC(C)C)ccc4n3)c2)c(OC)c1` [Compound 50], the midpoint of inhibition, the IC50, lay at 0.52 µM.

In turn, `CC(C)NC(=O)c1ccc2nc(-c3cccc(NS(=O)(=O)NCc4ccc(F)cc4)c3)cn2c1` [Compound 51] registered an IC50 of 1.02 µM.

`CNS(=O)(=O)Nc1cccc(-c2cn3cc(C(=O)NC(C)C)ccc3n2)c1` [Compound 52]: the IC50 is 0.39 µM.

Turning to `CC(C)NC(=O)c1ccc2nc(-c3cccc(NS(=O)(=O)NCCCN4CCCC4=O)c3)cn2c1` [Compound 53], inhibition was half-maximal at 0.88 µM (IC50).

`COC(=O)[C@@H](Cc1c[nH]c2ccccc12)NS(=O)(=O)Nc1cccc(-c2cn3cc(C(=O)NC(C)C)ccc3n2)c1` [Compound 54] gave an IC50 of 0.87 µM.

Regarding `COC(=O)[C@H]1CCCN1S(=O)(F)=Nc1cccc(-c2cn3cc(C(=O)NC(C)C)ccc3n2)c1` (some centres unmarked) [Compound 55], 0.95 µM corresponded to half-maximal inhibition (IC50).

In the case of `Cc1cc(-c2cn3cc(C(=O)NC(C)C)ccc3n2)ccn1` [Compound 88], the IC50 stood at 7.05 µM.

For the compound `CC(C)NC(=O)c1ccc2nc(-c3ccccc3C#N)cn2c1` [Compound 89], the IC50 turned out to be 16.7 µM.

`CC(C)NC(=O)c1ccc2nc(Cn3ccnc3)cn2c1` [Compound 90] yielded an IC50 of 26.6 µM.

For `CC(C)NC(=O)c1ccc2nc(-c3ccccn3)cn2c1` [Compound 91], the concentration for half-maximal inhibition (IC50) amounted to 14.8 µM.

In the case of `CC(C)NC(=O)c1ccc2nc(-c3ccc(CN)cc3)cn2c1` [Compound 92], it took 3.72 µM to reach half-maximal inhibition (IC50).

The same assay, now with this note: read-out: ENL (YEATS)-H3K27cr HTRF (IC50); Table 1.
Consider `CC(C)NC(=O)c1ccc2nc(-c3cccc(N=S(=O)(F)F)c3)cn2c1` [Compound 40, (3-(6-(isopropylcarbamoyl)imidazo[1,2-a]pyridin-2-yl)phenyl)sulfurimidoyl difluoride], for which the half-inhibitory concentration (IC50) turned out to be 3.6 µM.

With `O=C(NC1C2CC1C2)c1ccc2nc(-c3ccccc3)cn2c1` (centres unmarked) [Compound 125], the half-inhibitory concentration (IC50) is over 50 µM.

The assay is the same for the next values; noted with them: read-out: ENL (YEATS)-H3K27cr HTRF (IC50); Table 2.
For `CC(C)NC(=O)c1ccc2nc(-c3ccc(N=S(=O)(F)F)cc3)cn2c1` [Compound 41, (4-(6-(isopropylcarbamoyl)imidazo[1,2-a]pyridin-2-yl)phenyl)sulfurimidoyl difluoride], the concentration for half-maximal inhibition (IC50) was 13 µM.

For another assay, the target named is T2, BRD4 bromodomain 1 (BD1) (Homo sapiens, UniProt O60885).
T2 construct: Selectivity against BRD4 bromodomain 1 (BD1), measured by HTRF; His; purchased Cayman 11720
The assay can be described thus: BRD4 (BD1)-H4 tetra-acetylated HTRF histone-binding assay. Conditions: Table 1. On the procedure: as §1, §2
As to `CC(C)NC(=O)c1ccc2nc(-c3cccc(N=S(=O)(F)F)c3)cn2c1` [Compound 40, (3-(6-(isopropylcarbamoyl)imidazo[1,2-a]pyridin-2-yl)phenyl)sulfurimidoyl difluoride], the IC50 was over 50 µM.

`CC(C)NC(=O)c1ccc2nc(-c3ccc(N=S(=O)(F)F)cc3)cn2c1` [Compound 41, (4-(6-(isopropylcarbamoyl)imidazo[1,2-a]pyridin-2-yl)phenyl)sulfurimidoyl difluoride] showed an IC50 of over 50 µM.

On to `CC(C)NC(=O)c1ccc2nc(-c3cccc(NS(=O)(=O)NCc4ccc(O)cc4)c3)cn2c1` [Compound 47], for which the IC50 was over 50 µM.

With `CC(C)NC(=O)c1ccc2nc(-c3cccc(NS(=O)(=O)NCCc4ccc(S(N)(=O)=O)cc4)c3)cn2c1` [Compound 48], the IC50 is over 50 µM.

Compound `CC(C)NC(=O)c1ccc2nc(-c3cccc(NS(=O)(=O)NCCc4cccs4)c3)cn2c1` [Compound 49] displayed a half-inhibitory concentration (IC50) of over 50 µM.

`COc1ccc(CNS(=O)(=O)Nc2cccc(-c3cn4cc(C(=O)NC(C)C)ccc4n3)c2)c(OC)c1` [Compound 50] gave a 50% inhibitory concentration (IC50) of over 50 µM.

Compound `CC(C)NC(=O)c1ccc2nc(-c3cccc(NS(=O)(=O)NCc4ccc(F)cc4)c3)cn2c1` [Compound 51] showed a concentration for half-maximal inhibition (IC50) of over 50 µM.

As to `CNS(=O)(=O)Nc1cccc(-c2cn3cc(C(=O)NC(C)C)ccc3n2)c1` [Compound 52], the 50% inhibitory concentration (IC50) was over 50 µM.

As to `CC(C)NC(=O)c1ccc2nc(-c3cccc(NS(=O)(=O)NCCCN4CCCC4=O)c3)cn2c1` [Compound 53], the IC50 is over 50 µM.

In the case of `COC(=O)[C@@H](Cc1c[nH]c2ccccc12)NS(=O)(=O)Nc1cccc(-c2cn3cc(C(=O)NC(C)C)ccc3n2)c1` [Compound 54], the IC50 was over 50 µM.

Consider `COC(=O)[C@H]1CCCN1S(=O)(F)=Nc1cccc(-c2cn3cc(C(=O)NC(C)C)ccc3n2)c1` (some centres unmarked) [Compound 55], for which the IC50 is over 50 µM.

The same assay, now with this note: Table 2.
The compound `CC(C)NC(=O)c1ccc2nc(-c3cccc(N=S(=O)(F)F)c3)cn2c1` [Compound 40, (3-(6-(isopropylcarbamoyl)imidazo[1,2-a]pyridin-2-yl)phenyl)sulfurimidoyl difluoride] showed a half-maximal inhibitory concentration (IC50) of over 50 µM.

The compound `CC(C)NC(=O)c1ccc2nc(-c3ccc(N=S(=O)(F)F)cc3)cn2c1` [Compound 41, (4-(6-(isopropylcarbamoyl)imidazo[1,2-a]pyridin-2-yl)phenyl)sulfurimidoyl difluoride] returned a concentration for half-maximal inhibition (IC50) of over 50 µM.

In the case of `CC(C)NC(=O)c1ccc2nc(-c3cccc(NS(=O)(=O)NCc4ccc(O)cc4)c3)cn2c1` [Compound 47], the IC50 was over 50 µM.

Consider `CC(C)NC(=O)c1ccc2nc(-c3cccc(NS(=O)(=O)NCCc4ccc(S(N)(=O)=O)cc4)c3)cn2c1` [Compound 48], for which the IC50 is over 50 µM.

As for `CC(C)NC(=O)c1ccc2nc(-c3cccc(NS(=O)(=O)NCCc4cccs4)c3)cn2c1` [Compound 49], the IC50 is over 50 µM.

As for `COc1ccc(CNS(=O)(=O)Nc2cccc(-c3cn4cc(C(=O)NC(C)C)ccc4n3)c2)c(OC)c1` [Compound 50], the concentration for half-maximal inhibition (IC50) is over 50 µM.

For `CC(C)NC(=O)c1ccc2nc(-c3cccc(NS(=O)(=O)NCc4ccc(F)cc4)c3)cn2c1` [Compound 51], the half-maximal inhibitory concentration (IC50) is over 50 µM.

Take `CNS(=O)(=O)Nc1cccc(-c2cn3cc(C(=O)NC(C)C)ccc3n2)c1` [Compound 52]: the IC50 was over 50 µM.

In turn, `CC(C)NC(=O)c1ccc2nc(-c3cccc(NS(=O)(=O)NCCCN4CCCC4=O)c3)cn2c1` [Compound 53] had a half-maximal inhibitory concentration (IC50) of over 50 µM.

The compound `COC(=O)[C@@H](Cc1c[nH]c2ccccc12)NS(=O)(=O)Nc1cccc(-c2cn3cc(C(=O)NC(C)C)ccc3n2)c1` [Compound 54] returned an IC50 of over 50 µM.

With `COC(=O)[C@H]1CCCN1S(=O)(F)=Nc1cccc(-c2cn3cc(C(=O)NC(C)C)ccc3n2)c1` (some centres unmarked) [Compound 55], the IC50 is over 50 µM.

These data come from patent US20220274980A1, “PHARMACOLOGICAL INHIBITORS OF THE ENL YEATS DOMAIN” (priority 2019, published 2022).
